Laboratory results as given in patent publication US20080269332A1, “EYELASH ENHANCEMENT COMPOSITION AND METHOD OF TREATMENT” (LA CANADA VENTRURES, INC., priority 2007, published 2008).

Tested on: eyelash growth
Assay: Randomized double blind clinical trial of eyelash growth, daily topical application to root of upper eyelashes for 4 weeks
Assay type: in vivo, human
Procedure: These solutions were each applied daily to the roots of the upper right and left eyelashes of the patients in a quantity of approximately 0.0164 ml. Patients applied the eyelash product daily for 4 weeks on the root of the upper eyelashes only since some of the solution used may ultimately be deposited on the lower lash interfering with the studies' parameters. Methods: 34 patients were randomly assigned to one of three different treatment groups based on a standard treatment of the upper right lash and different treatments of the upper left eye lash with varying concentrations of the active product and a placebo. Age range of the patients was 20-56; 33 female, 1 male. Three different treatment Groups were constructed based on RIGHT EYE lash treatment/LEFT EYE lash treatment and defined as Groups A/B, A/D and A/C). All patients used Solution A on the right eye lash which is the “Control Group”, with Solutions B, D, and C used on the left eye lash of these same patients. Group A/B (14 patients) used Solution A on the upper right lash and Solution B on the upper left lash. Group A/D (9 patients) used Solution A on the upper right lash and Solution D on the upper left lash. Group A/C (11 patients) used Solution A on the upper right lash and the placebo, Solution C, on the upper left lash. After four (4) weeks upper RIGHT eyelash measurement were made for all 34 randomized patients. The upper LEFT eyelash measurement were made for the 14 patients using Solution B, for the 9 patients using Solution D and the 11 patients using Solution C (the placebo). Eyelash measurements for both the upper right and left eyelashes were taken in the medial, middle and lateral locations on both upper and lower eyelids using micocalipers and measured to 0.1 mm. The mean of the six measurements were then used to calculate the eyelash length for each eye. Measurements were taken at the initiation of the study to use as standard base. The technicians performing the measurements were blinded to the patient group assignment. A paired two-tailed Student's t-Test was used for statistical analysis. All patients enrolled into the study underwent a standard informed consent procedure.

CCNC(=O)CCC/C=C\C[C@@H]1[C@@H](/C=C/[C@@H](O)COc2ccccc2)[C@H](O)C[C@@H]1O [active agent, (z)-7-((1R,2R,3R,5S)-3,5-dihydroxy-2-((R,E)-3-hydroxy-4-phenoxybut-1-enyl)cyclopentyl)-N-ethylhept-5-enamide]
increase lash growth relative to placebo (growth with active / growth with placebo ×100) (4 weeks of daily use, placebo Solution C growth 0.63 mm): 268.25%
patients subjectively reporting an increase in the thickness or fullness of their eyelashes (9/34 patients, 4 weeks of daily use): 26%
patients reporting mild or minimal irritation (19/34 patients, typically resolved after several days of use): 56%
patients reporting moderate irritation and discontinuing (34 patients, daily topical use): One patient reported moderate irritation and discontinued the product
